Measured values published in EP3581565A1, “PHENYL BENZYL ETHER DERIVATIVE AND PREPARATION METHOD AND APPLICATION THEREOF” (Beijing Zhibo Bio-Medical Technology Co., Ltd., priority 2018, dated 2019).

Legend:
logD of labeled ligands = assay type: physicochemical
Aβ1-42 aggregates = biological target: T1, Aβ1-42 aggregates (Homo sapiens, UniProt P05067); assay: In-vitro competitive binding experiment (Ki determination) with Aβ1-42 aggregates
T1 construct: Preparing receptor Aβ1-42 proteins according to the existing method
Method: 4, the compounds are separated after balancing, and the inhibition constant (Ki) is calculated by determining radioactivity.
• (1) Preparing 41 of PBS (0.2M) buffer solution with pH=7.4; • (2) Preparing radioligand [^125I]

T1 sequence (P05067 672-713 limits assumed): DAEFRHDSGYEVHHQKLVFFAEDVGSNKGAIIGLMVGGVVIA

SMILES: COc1ccc(OCc2ccc([125I])cc2)cc1 [[^125I]4]
- logD (logD of labeled ligands): [^125I]4 (logD = 4.00± 0.08)

SMILES: COc1ccc(OCc2ccc(OCC[18F])cc2)cc1 [[^18F]44a]
- logD (logD of labeled ligands): [^18F]44a(logD = 3.05 ± 0.08)

SMILES: CN(C)c1ccc(OCc2ccc([125I])cc2)cc1 [[^125I]22]
- logD (logD of labeled ligands): [^125I]22(logD = 2.89± 0.09)

SMILES: FCCOc1ccc(OCc2ccc([125I])cc2)cc1 [[^125I]31a]
- logD (logD of labeled ligands): [^125I]31a(logD = 3.96± 0.22)

SMILES: Clc1ccc(OCc2ccc(I)cc2)cn1 [Compound 55, 2-chloro-5-((4-iodobenzyl)oxy) pyridine]
- Ki (Aβ1-42 aggregates): 0.88 ± 0.0724 µM

SMILES: COc1ccc(COc2ccc(OCC[18F])cc2)cc1 [[^18F] 53a]
- logD (logD of labeled ligands): [^18F] 53a (logD= 3.65 ±0.04)

SMILES: COc1ccc(COc2ccc([125I])cc2)cc1 [[^125I]24]
- logD (logD of labeled ligands): [^125I]24 (logD = 4.16± 0.29)

SMILES: Brc1ccc(OCc2ccc(I)cc2)cn1 [Compound 57, 2-bromo-5-((4-iodobenzyl)oxy) pyridine]
- Ki (Aβ1-42 aggregates): 0.163 ± 0.023 µM
